Source: paper PMC3001897, “High-Throughput Chemical Screen Identifies a Novel Potent Modulator of Cellular Circadian Rhythms and Reveals CKIα as a Clock Regulatory Kinase” (PLoS Biology, 2010)

Columns and labels:
[1] = test system: protein kinases (CKIδ, CKIα, ERK2, CDK7, p38α; ERK1); test: Affinity chromatography with compound 3 resin and U2OS cell lysate; assay type: binding, human
Experimental: U2OS cells kept in confluence (2×10^8 cells) were collected with ice-cold PBS and homogenized by using Dounce homogenizer in 5 ml of lysis buffer (25 mM MOPS, 15 mM EGTA, 15 mM MgCl2, 1 mM DTT, 60 mM β-glycerophosphate, 15 mM p-nitrophenyl phosphate, 1 mM Na3VO4, 1 mM NaF, 1 mM phenyl phosphate, 10 µg/ml leupeptin, 10 µg/ml aprotinin, 10 µg/ml soybean trypsin inhibitor, 100 µM benzamidine, pH7.2). The homogenate was sonicated and centrifuged (16,000×g) at 4°C for 20 min. The resulting supernatant was split into two, and each portion was incubated with or without 100 µM longdaysin (final 0.1% DMSO) at 4°C for 10 min (Figure 2C). Then, 120 µl of compound 3 [50% slurry in bead buffer (50 mM Tris, 250 mM NaCl, 5 mM EDTA, 5 mM EGTA, 0.1% NP-40, 5 mM NaF, 10 µg/ml leupeptin, 10 µg/ml aprotinin, 10 µg/ml soybean trypsin inhibitor, 100 µM benzamidine, pH 7.4)] was added to the mixture and incubated at 4°C for 1 h with rotation. […]
All gel bands were subjected to LC-MS/MS analysis as described previously. Tandem MS data were analyzed using Sequest (ThermoFinnigan, San Jose, CA; Version 3.0). […]
Scaffold (version Scaffold_2_05_00, Proteome Software Inc., Portland, OR) was used to validate MS/MS based peptide and protein identifications. […] Crude differential quantitation of proteins identified in both pulldown experiments was performed by comparing the number of assigned peptides.

CKIα = CKIα (Homo sapiens, UniProt P48729); test: In vitro kinase assay, CKIα; assay type: biochemical; parameters: purchased Invitrogen PV3850; details: ATP 5 µM; from Figure 2E
Experimental: (§1) The CKIδ, CKIα, CDK7, and ERK2 kinase assays were performed on 384-well plates (10 µl volume). The reaction mixture was as follows: for CKIδ, 2 ng/µl CKIδ (Millipore, 14-520), 50 µM peptide substrate RKKKAEpSVASLTSQCSYSS corresponding to human PER2 Lys659-Ser674 [47], and CKI buffer (40 mM Tris, 10 mM MgCl2, 0.5 mM DTT, 0.1 mg/ml BSA, pH 7.5); for CKIα, 1 ng/µl CKIα (Invitrogen, PV3850), 50 µM CKI peptide substrate (Anaspec, 60547-1), and CKI buffer; for CDK7, 5 ng/µl CDK7 (Millipore, 14-476), 100 µM Cdk7/9 peptide substrate (Millipore, 12-526), and CKI buffer; for ERK2, 1.5 ng/µl ERK2 (Millipore, 14-550), 0.8 µg/µl MBP (Millipore, 13-104), and ERK buffer (50 mM Tris, 10 mM MgCl2, 0.5 mM DTT, 1 mM EGTA, pH 7.5). Five hundred nl of compound was added to the mixture (final 5% DMSO), and the reaction was started by adding ATP (final 5 µM). After incubation at 30°C for 3h, 10 µl of Kinase-Glo Luminescent Kinase Assay reagent (Promega) was added, and the luminescence was detected to determine remaining ATP amount. […] IC50 value was obtained by using Prism software (GraphPad Software).

Bmal1-dLuc U2OS cells = test: Cytotoxicity in the U2OS circadian assay; assay type: cell-based, human
Experimental: The compound screen was done with the high-throughput circadian assay system as described previously. In brief, Bmal1-dLuc U2OS cells were suspended in the culture medium (DMEM supplemented with 10% fetal bovine serum, 0.29 mg/ml L-glutamine, 100 units/ml penicillin, and 100 µg/ml streptomycin) and plated onto 384-well white solid-bottom plates at 20 µl (2,000 cells) per well. After 2 d, 50 µl of the explant medium (DMEM supplemented with 2% B27, 10 mM HEPES, 0.38 mg/ml sodium bicarbonate, 0.29 mg/ml L-glutamine, 100 units/ml penicillin, 100 µg/ml streptomycin, 0.1 mg/ml gentamicin, and 1 mM luciferin, pH 7.2) was dispensed to each well, followed by the application of 500 nl of compounds (dissolved in DMSO; final 0.7% DMSO). The plate was covered with an optically clear film and set to luminescence monitoring system equipped with a CCD imager (ViewLux, Perkin Elmer). The luminescence was recorded every 2 h for 3–4 days. In follow-up studies, the luminescence was recorded every 100 min by using a microplate reader (Infinite M200, Tecan). The period parameter was obtained from the luminescence rhythm by curve fitting program CellulaRhythm or MultiCycle (Actimetrics), both of which gave similar results.

CKIδ [2] = biological target: T1, CKIδ (Homo sapiens, UniProt P48730); test: Cell-based PER1 degradation assay (PER1-LUC), CKIδ
Experimental: HEK293T cells (6.0×10^4 cells) were reverse transfected on 96-well white solid-bottom plates by Lipofectamine 2000 with 40 ng each of expression vectors for C-terminally luciferase-fused PER1 (in p3XFLAG-CMV-14) and N-terminally HA-tagged kinase (in p3XFLAG-CMV-14). For luciferase (in p3XFLAG-CMV-14), 2 ng of expression vector with 38 ng of empty vector was used because of its efficient expression. After 48 h, the medium was supplemented with luciferin (final 1 mM) and HEPES-NaOH (pH 7.2; final 10 mM). After 1 h, cycloheximide (final 20 µg/ml) was added to the medium, and the plate was covered with optically clear film. The luminescence was recorded every 10 min by using the Tecan luminometer. Half-life was obtained by using Prism software (GraphPad Software).

CKIδ [3] = biological target: T1, CKIδ; test: In vitro kinase assay, CKIδ; assay type: biochemical; parameters: purchased Millipore 14-520; details: ATP 5 µM; from Figure 2E
Experimental: as §1

T1 sequence (P48730 whole entry, species assumed, the tested form may be a part): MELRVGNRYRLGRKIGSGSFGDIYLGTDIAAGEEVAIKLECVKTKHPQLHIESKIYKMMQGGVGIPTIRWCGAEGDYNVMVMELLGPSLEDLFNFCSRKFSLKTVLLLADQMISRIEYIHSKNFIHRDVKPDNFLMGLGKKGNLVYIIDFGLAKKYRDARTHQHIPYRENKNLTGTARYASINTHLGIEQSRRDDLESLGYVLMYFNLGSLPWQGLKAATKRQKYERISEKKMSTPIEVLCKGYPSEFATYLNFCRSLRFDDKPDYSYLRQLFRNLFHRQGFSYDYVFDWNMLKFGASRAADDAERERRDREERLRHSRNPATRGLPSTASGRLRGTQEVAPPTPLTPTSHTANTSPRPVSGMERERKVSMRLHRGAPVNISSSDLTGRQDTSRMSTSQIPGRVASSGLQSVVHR
Chain of CKIα (P48729 whole entry): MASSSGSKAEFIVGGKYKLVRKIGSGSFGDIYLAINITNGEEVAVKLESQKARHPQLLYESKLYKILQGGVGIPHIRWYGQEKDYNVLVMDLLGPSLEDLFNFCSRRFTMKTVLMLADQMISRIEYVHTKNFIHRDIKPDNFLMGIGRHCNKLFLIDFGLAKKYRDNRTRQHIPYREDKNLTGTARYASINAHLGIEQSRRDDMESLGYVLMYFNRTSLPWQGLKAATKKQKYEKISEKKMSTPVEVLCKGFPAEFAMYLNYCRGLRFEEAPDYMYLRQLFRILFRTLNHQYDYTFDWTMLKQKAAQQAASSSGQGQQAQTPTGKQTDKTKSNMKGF

Q: Which results are given for `CC(C)n1cnc2c(NCc3cccc(C(F)(F)F)c3)ncnc21` [Longdaysin, 9-isopropyl-N-(3-(trifluoromethyl)benzyl)-9H-purin-6-amine]?
A: Binding of protein kinases to the affinity resin on competition ([1]; 100 µM free longdaysin as soluble competitor): decreased binding in the presence of free longdaysin; Signal reduction of listed binding proteins upon competition ([1]; 100 µM free longdaysin, tandem MS spectra): ≥ 3 fold; IC50 (CKIα): 5.6 µM; Concentration showing cytotoxicity (Bmal1-dLuc U2OS cells): 71 µM; EC50 (CKIδ [2]; HEK293T cells, 24 h treatment, from Figure 4E): 9.7 µM; Effect on CKIδ-dependent degradation of PER1 (CKIδ [2]; HEK293T, 0 to 20 µM, 24 h): inhibited by longdaysin treatment in a dose-dependent manner; IC50 (CKIδ [3]): 8.8 µM
